Assay results as given in US20240158446A1, “CYCLIC COMPOUND HAVING SELECTIVE INHIBITORY ACTION ON KRAS OVER HRAS AND NRAS” (CHUGAI SEIYAKU KABUSHIKI KAISHA, priority 2021, published 2024).
Where two headings read alike, the source gives them in different places. Where a SMILES comes first, the peptide text is derived from it. Bridges are numbered along the chain shown (N, C = ends). [ ]: non-standard residue; d: D form. The star is where a group is joined. hPhe(3-Cl-4-CF3) = N[C@@H](CCc1ccc(C(F)(F)F)c(Cl)c1)C(=O)O; NPrPhe(4-CF3) = CCCN[C@@H](Cc1ccc(C(F)(F)F)cc1)C(=O)O; NMeGly(cPent) = CN[C@H](C(=O)O)C1CCCC1; NMeD = CN[C@@H](CC(=O)O)C(=O)O; NMeL = CN[C@@H](CC(C)C)C(=O)O; Morpholide = C1CN(*)CCO1; Ac4c = NC1(C(=O)O)CCC1; NEtG = CCNCC(=O)O; Sar = CNCC(=O)O

What was measured:
[1] = molecular target: GDP-bound KRAS wild-type protein (Homo sapiens, UniProt P01116); assay: Binding to KRAS by surface plasmon resonance (SPR), Single Cycle Kinetics; details: SPR, Single Cycle Kinetics, GDP-bound KRAS wild-type protein, read-out: KRAS KD
GDP-bound KRAS wild-type protein, sequence (P01116 whole entry): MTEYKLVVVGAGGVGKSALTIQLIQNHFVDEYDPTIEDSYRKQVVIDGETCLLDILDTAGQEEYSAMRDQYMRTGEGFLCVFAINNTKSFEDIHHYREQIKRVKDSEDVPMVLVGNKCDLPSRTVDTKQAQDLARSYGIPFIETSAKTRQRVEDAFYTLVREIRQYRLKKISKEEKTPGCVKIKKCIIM

[2] = molecular target: GDP-bound NRAS wild-type protein (Homo sapiens, UniProt P01111); assay: Binding to NRAS by surface plasmon resonance (SPR), Single Cycle Kinetics; details: SPR; for NRAS/KRAS (ratio of KD value for NRAS to KD value for KRAS): GDP-bound NRAS wild-type protein vs GDP-bound KRAS wild-type protein, KD ratio class; for NRAS/KRAS (KD ratio): ratio of KD for GDP-bound NRAS wild-type protein to KD for KRAS
GDP-bound NRAS wild-type protein, sequence (P01111 whole entry): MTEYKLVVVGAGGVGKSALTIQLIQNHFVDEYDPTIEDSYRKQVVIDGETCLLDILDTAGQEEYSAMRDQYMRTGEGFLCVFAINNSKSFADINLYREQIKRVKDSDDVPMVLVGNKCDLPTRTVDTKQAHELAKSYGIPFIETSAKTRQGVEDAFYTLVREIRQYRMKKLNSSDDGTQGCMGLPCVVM

[3] = molecular target: GDP-bound HRAS wild-type protein (Homo sapiens, UniProt P01112); assay: Binding to HRAS by surface plasmon resonance (SPR), Single Cycle Kinetics; details: SPR; for HRAS/KRAS (ratio of KD value for HRAS to KD value for KRAS): GDP-bound HRAS wild-type protein vs GDP-bound KRAS wild-type protein, KD ratio class; for HRAS/KRAS (KD ratio): ratio of KD for GDP-bound HRAS wild-type protein to KD for KRAS
GDP-bound HRAS wild-type protein, sequence (P01112 whole entry): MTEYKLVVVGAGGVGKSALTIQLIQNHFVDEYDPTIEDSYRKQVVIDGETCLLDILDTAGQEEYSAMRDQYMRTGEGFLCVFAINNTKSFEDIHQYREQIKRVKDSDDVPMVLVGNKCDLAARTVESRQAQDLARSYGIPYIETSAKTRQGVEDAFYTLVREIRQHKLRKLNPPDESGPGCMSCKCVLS

[4] = test system: human lung cancer strain NCI-H441;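 note: cell proliferation inhibition after four days measured by CellTiter-Glo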
[5] = read-out: NCI-H441 IC50, NCI-H441 cell proliferation, 4 days, CellTiter-Glo

Row | SMILES | Kd ([1]; 1:1 binding model) | NRAS/KRAS (ratio of KD value for NRAS to KD value for KRAS) [2] | HRAS/KRAS (ratio of KD value for HRAS to KD value for KRAS) [3] | IC50 [4] | Kd [1] | NRAS/KRAS (KD ratio) [2] | HRAS/KRAS (KD ratio) [3] | IC50 [4, 5]
1 | CCCC[C@H]1C(=O)N[C@@H]([C@@H](C)CC)C(=O)N(C)CC(=O)N(C)[C@H]2C/C=C\CCN(C2=O)[C@@H](Cc2ccc(C(F)(F)F)cc2)C(=O)N(C)CC(=O)N[C@@H](CCc2cc(F)c(C(F)(F)F)c(F)c2)C(=O)N2C[C@H](OCC)C[C@H]2C(=O)NC2(CCC2)C(=O)N(C)[C@@H](C2CCCC2)C(=O)N(C)[C@H](C(=O)N(C)CC)CC(=O)N1C [PP1558] | 0.11 nM | A (a compound having 10 or more and less than 20 is denoted as A) | B (a compound having 3 or more and less than 10 is denoted as B) | 3.4 nM | – | – | – | –
2 | CCCC[C@H]1C(=O)N[C@@H]([C@@H](C)CC)C(=O)N(C)CC(=O)N(C)[C@H]2C/C=C\CCN(C2=O)[C@@H](Cc2ccc(C(F)(F)F)cc2)C(=O)N(C)CC(=O)N[C@@H](CCc2ccc(C(F)(F)F)c(OC)c2)C(=O)N2C[C@H](OCC)C[C@H]2C(=O)NC2(CC(C)(C)C2)C(=O)N(C)[C@@H](C2CCCC2)C(=O)N(C)[C@H](C(=O)N(C)C)CC(=O)N1C [PP1561] | 0.064 nM | A (a compound having 10 or more and less than 20 is denoted as A) | B (a compound having 3 or more and less than 10 is denoted as B) | 2.7 nM | – | – | – | –
3 | CCO[C@@H]1C[C@H]2C(=O)NC3(CC(C)(C)C3)C(=O)N(C)[C@@H](C3CCCC3)C(=O)N(C)[C@H](C(=O)N(C)C)CC(=O)N(C)[C@@H](CC(C)C)C(=O)N[C@@H]([C@@H](C)CC)C(=O)N(C)CC(=O)N(C)[C@H]3C/C=C\CCN(C3=O)[C@@H](Cc3ccc(C(F)(F)F)cc3)C(=O)N(C)CC(=O)N[C@@H](CCc3ccc(C(F)(F)F)c(OC)c3)C(=O)N2C1 [PP1562] | 0.046 nM | A (a compound having 10 or more and less than 20 is denoted as A) | A (a compound having 10 or more and less than 20 is denoted as A) | 1.7 nM | – | – | – | –
4 | CCO[C@@H]1C[C@H]2C(=O)NC3(CC(C)(C)C3)C(=O)N(C)[C@@H](C3CCCC3)C(=O)N(C)[C@H](C(=O)N(C)C)CC(=O)N(C)[C@@H](CC3CCC3)C(=O)N[C@@H]([C@@H](C)CC)C(=O)N(C)CC(=O)N(C)[C@H]3C/C=C\CCN(C3=O)[C@@H](Cc3ccc(C(F)(F)F)cc3)C(=O)N(C)CC(=O)N[C@@H](CCc3ccc(C(F)(F)F)c(OC)c3)C(=O)N2C1 [PP1564] | 0.073 nM | A (a compound having 10 or more and less than 20 is denoted as A) | A (a compound having 10 or more and less than 20 is denoted as A) | 3 nM | – | – | – | –
5 | CC[C@H](C)[C@@H]1NC(=O)[C@H](CC(C)C)N(C)C(=O)C[C@@H](C(=O)N(C)C)N(C)C(=O)[C@H](C2CCCC2)N(C)C(=O)C2(CC(C)(C)C2)NC(=O)[C@@H]2C[C@@H](F)CN2C(=O)[C@H](CCc2cc(F)c(C(F)(F)F)c(F)c2)NC(=O)CN(C)C(=O)[C@H](Cc2ccc(C(F)(F)F)cc2)N2CC/C=C\C[C@@H](C2=O)N(C)C(=O)CN(C)C1=O [PP1566] | 0.026 nM | A (a compound having 10 or more and less than 20 is denoted as A) | A (a compound having 10 or more and less than 20 is denoted as A) | 2.3 nM | – | – | – | –
6 | CCO[C@@H]1C[C@H]2C(=O)NC3(CC(C)(C)C3)C(=O)N(C)[C@@H](C3CCCC3)C(=O)N(C)[C@H](C(=O)N(CC)CC)CC(=O)N(C)[C@@H](CC)C(=O)N[C@@H]([C@@H](C)CC)C(=O)N(C)CC(=O)N(C)[C@H]3C/C=C\CCN(C3=O)[C@@H](Cc3ccc(C(F)(F)F)cc3)C(=O)N(C)CC(=O)N[C@@H](CCc3cc(F)c(C(F)(F)F)c(F)c3)C(=O)N2C1 [PP1580] | 0.17 nM | A (a compound having 10 or more and less than 20 is denoted as A) | A (a compound having 10 or more and less than 20 is denoted as A) | 9.7 nM | – | – | – | –
7 | CCO[C@@H]1C[C@H]2C(=O)NC3(CC(C)(C)C3)C(=O)N(C)[C@@H](C3CCCC3)C(=O)N(C)[C@H](C(C)C)CC(=O)N(C)[C@@H](CC)C(=O)N[C@@H]([C@@H](C)CC)C(=O)N(C)CC(=O)N(C)[C@H]3C/C=C\CCN(C3=O)[C@@H](Cc3ccc(C(F)(F)F)cc3)C(=O)N(C)CC(=O)N[C@@H](CCc3cc(F)c(C(F)(F)F)c(F)c3)C(=O)N2C1 [PP1588] | 0.6 nM | B (a compound having 3 or more and less than 10 is denoted as B) | B (a compound having 3 or more and less than 10 is denoted as B) | 24.2 nM | – | – | – | –
8 | CCCC[C@H]1C(=O)N[C@@H]([C@@H](C)CC)C(=O)N(C)CC(=O)N(C)[C@H]2C/C=C\CCN(C2=O)[C@@H](Cc2ccc(C(F)(F)F)cc2)C(=O)N(C)CC(=O)N[C@@H](CCc2cc(F)c(C(F)(F)F)c(F)c2)C(=O)N2C[C@H](OCC)C[C@H]2C(=O)NC2(CC(F)(F)C2)C(=O)N(C)[C@@H](C2CCCC2)C(=O)N(C)[C@H](C(=O)N(C)C)CC(=O)N1C [PP1740] | – | – | – | – | 0.053 nM | A (a compound having 10 or more and less than 20 is denoted as A) | A (a compound having 10 or more and less than 20 is denoted as A) | 3.6 nM
9 | CC[C@H](C)[C@@H]1NC(=O)[C@H](CC(C)C)N(C)C(=O)C[C@@H](C(=O)N(C)C)N(C)C(=O)[C@H](C2CCCC2)N(C)C(=O)C2(CCC2)N(C)C(=O)[C@@H]2CCCN2C(=O)[C@H](CCc2cc(F)c(C(F)(F)F)c(F)c2)NC(=O)CN(C)C(=O)[C@H](Cc2ccc(C)cc2)N2CC/C=C\C[C@@H](C2=O)N(C)C(=O)CN(C)C1=O [PP1791] | – | – | – | – | 0.042 nM | A (a compound having 10 or more and less than 20 is denoted as A) | A (a compound having 10 or more and less than 20 is denoted as A) | 3.7 nM
10 | CCO[C@@H]1C[C@H]2C(=O)NC3(CCC3)C(=O)N(C)[C@@H](C3CCCC3)C(=O)N(C)[C@H](C(=O)N(C)CC)CC(=O)N(C)[C@H]3CCCC/C=C/c4ccc(cc4)C[C@@H](C(=O)N(C)CC(=O)N[C@@H](CCc4cc(F)c(C(F)(F)F)c(F)c4)C(=O)N2C1)N1CC/C=C\C[C@@H](C1=O)N(C)C(=O)CN(C)C(=O)[C@H]([C@@H](C)CC)NC3=O [PP1827, (1S,7S,11R,13S,19S,22S,26S,29S,35S,37Z,47E)-19-cyclopentyl-7-[2-[3,5-difluoro-4-(trifluoromethyl)phenyl]ethyl]-11-ethoxy-N-ethyl-N,3,18,21,25,31,34-heptamethyl-29-[(1S)-1-methylpropyl]-2,5,8,14,17,20,24,27,30,33,55-undecaoxo-spiro[3,6,9,15,18,21,25,28,31,34,41-undecazapentacyclo[24.15.11.2^43,46.1^35,41.0^9,13]pentapentaconta-37,43(54),44,46(53),47-pentaene-16,1′-cyclobutane]-22-carboxamide] | – | – | – | 2.4 nM | 0.029 nM | A (a compound having 10 or more and less than 20 is denoted as A) | A (a compound having 10 or more and less than 20 is denoted as A) | –
11 | CCO[C@@H]1C[C@H]2C(=O)NC3(CC(C)(C)C3)C(=O)N(C)[C@@H](C3CCCC3)C(=O)N(C)[C@H](C(=O)N(C)CC)CC(=O)N(C)[C@H]3CCCC/C=C/c4ccc(cc4)C[C@@H](C(=O)N(C)CC(=O)N[C@@H](CCc4cc(F)c(C(F)(F)F)c(F)c4)C(=O)N2C1)N1CC/C=C\C[C@@H](C1=O)N(C)C(=O)CN(C)C(=O)[C@H]([C@@H](C)CC)NC3=O [PP1829] | – | – | – | 2.3 nM | 0.033 nM | A (a compound having 10 or more and less than 20 is denoted as A) | B (a compound having 3 or more and less than 10 is denoted as B) | –
12 | CCCN1C(=O)CN(CC)C(=O)CN(C)C(=O)[C@H]([C@@H](C)CC)NC(=O)[C@H](CC(C)C)N(C)C(=O)C[C@@H](C(=O)N2CCOCC2)N(C)C(=O)[C@H](C2CCCC2)N(C)C(=O)C2(CCC2)NC(=O)[C@@H]2CCCN2C(=O)[C@H](CCc2ccc(C(F)(F)F)c(Cl)c2)NC(=O)CN(C)C(=O)[C@@H]1Cc1ccc(C(F)(F)F)cc1 [PP1948] ([NMeL]I[Sar][NEtG][NPrPhe(4-CF3)][Sar][hPhe(3-Cl-4-CF3)]P[Ac4c][NMeGly(cPent)][NMeD]-Morpholide; lactam N-11) | – | – | – | – | 0.41 nM | C (A compound having a KD ratio of 0.1 or more and less than 3 is denoted as C) | C (A compound having a KD ratio of 0.1 or more and less than 3 is denoted as C) | 16.2 nM
